How the values were obtained:
[1] = Acute BAT activation, serum 12,13-diHOME by LC-MS/MS; assay type: in vivo; conditions: mice treated for 30 minutes
Experimental: All lipid standards were purchased from Cayman Chemical Company, Avanti Polar Lipids, or Santa Cruz Biotechnology, Inc. C18SPE cartridges were purchased from Biotage. All solvents are of HPLC or LC-MS/MS grade and were acquired from Sigma-Aldrich, Fisher Scientific, or VWR International. Tissue samples were homogenized in 0.1×PBS in Omni homogenizing tubes with ceramic beads at 4° C. Aliquots of 100 μL serum or 1 mg protein of homogenized tissue (measured by BCA) were taken, depending on the experiment. A mixture of deuterium-labeled internal standards was added to each aliquot, followed by 3× volume of sample of cold methanol (MeOH). Samples were vortexed for 5 min and stored at -20° C. overnight. Cold samples were centrifuged at 14,000 g for 10 min, and the supernatant was then transferred to a new tube and 3 mL of acidified H2O (pH 3.5) was added to each sample prior to C18 SPE and performed as previously described (Powell, W. S., Methods Mol Biol. 120, 11-24 (1999)). The methyl formate fractions were collected, dried under nitrogen, and reconstituted in 50 μL MeOH:H2O (1:1, by vol). […] The identity of a component was confirmed using PeakView® software (SCIEX), and quantification was performed using MultiQuantTM software (SCIEX). The quantification of 12,13-diHOME was performed against a standard calibration curve built with 5 points ranging from 0.01 pg/μL to 100 pg/μL. […]

[2] = system: mature brown adipocytes; assay: In vitro fatty acid uptake (FFA-SS-Luc) in brown adipocytes constitutively expressing luciferase; assay type: cell-based, mice; conditions: data not shown
Experimental: Stromal vascular cells were isolated from interscapular brown adipose tissue dissected from TgLuc mice (Stock no. 008450) obtained from The Jackson Laboratory. Cells were immortalized and differentiated into adipocytes in vitro according to the WT-1 protocol (Tseng, Y. H. et al., Mol. Cell Biol. 24, 1918-1929 (2004)). After 1 hour of serum starvation, mature adipocytes were treated with 1 μM 12,13-diHOME or methyl acetate vehicle in 0.1% w/v BSA in PBS for 15 minutes. After this treatment, cells were incubated with 10 μm FFA-SS-Luc (Intrace Medical) and imaged using the IVIS Spectrum CT using sequential 30 s exposures for 1 hour. Data was analyzed using Living Image Software and movies were assembled from individual images using ImageJ. All cultures were confirmed to be Mycoplasma free.

[3] = system: Ephx1; assay: Ephx1 gene expression by qPCR after CL316,243 treatment; assay type: in vivo; conditions: mice, daily 1 mg/kg intraperitoneally for 10 days
Experimental: (§1) Total RNA was extracted from tissue with Trizol and purified using a spin column kit (Zymo Research). RNA (500 ng-1 μg) was reverse transcribed with a high-capacity complementary DNA (cDNA) reverse transcription kit (Applied Biosystems). Real-time PCR was performed in mouse tissues starting with 10 ng of cDNA and forward and reverse oligonucleotide primers (300 nM each) in a final volume of 10 μl with SYBR green PCR Master Mix (Roche). Fluorescence was determined and analyzed in an ABI Prism 7900 sequence detection system (Applied Biosystems). Acidic ribosomal phosphoprotein P0 (ARBP) expression was used to normalize gene expression.

[4] = system: Ephx2; assay: Ephx2 gene expression by qPCR after CL316,243 treatment; assay type: in vivo; conditions: mice, daily 1 mg/kg intraperitoneally for 10 days
Experimental: as §1

| effect of NE treatment added to 12,13-diHOME on FFA-SS-Luc uptake in vitro [2] | SMILES | 12,13-diHOME production (serum concentration) [1] | Ephx1 expression in sWAT [3] | Ephx2 expression in BAT [4] |
| --- | --- | --- | --- | --- |
| no additive effect | NC[C@H](O)c1ccc(O)c(O)c1 [NE, Norepinephrine, reference compound] | induced |  |  |
|  | C[C@H](Cc1ccc2c(c1)OC(C(=O)[O-])(C(=O)[O-])O2)NC[C@H](O)c1cccc(Cl)c1.[Na+].[Na+] [CL316,243] |  | increased | increased |

Source: patent US11433042B2, “Methods and compositions for treating metabolic disorders” (Joslin Diabetes Center, Inc., priority 2017, dated 2022)
